Test results from ChEMBL document CHEMBL5329158 (RSC Med Chem, 2023).
pIC50: −log10 of the molar value.

System: not listed separately
Experiment: Selectivity index, ratio of CC50 for cytotoxicity against mouse NCTC clone 929 cells assessed as inhibition of cell growth to IC50 for antileishmanial activity against Leishmania infantum MHOM/BR/1972/LD amastigotes infected in mouse Peritoneal macrophage cells assessed as inhibition of parasite growth
Format: toxicity, cell-based
Conditions: read-out: Ratio CC50/IC50; call rule not given here

Row | SMILES | selectivity ratio
1 | C=CCc1cc(OC)c(OCc2ccc(OC)cc2)c(Oc2ccccc2OC)c1 | > 8.3
2 | CCCc1cc(OC)c(OCc2ccc(OC)cc2)c(Oc2ccc(CN3CCOCC3)cc2OC)c1 | 9.7
3 | C=CCc1ccc(Oc2cc(CC=C)cc(OC)c2OCC(=O)N2CCCC2)c(OC)c1 | 2.6
4 | CCCc1ccc(Oc2cc(CN3CCOCC3)cc(OC)c2OCc2cc(OC)c(OC)c(OC)c2)c(OC)c1 | > 7.6
5 | C=CCc1ccc(Oc2cc(CC=C)cc(OC)c2OCCN2CCOCC2)c(OC)c1 | 6.6
6 | CCCCCCCCCCCCCCCCOP(=O)([O-])OCC[N+](C)(C)C [MILTEFOSINE] | 18.4
7 | CCCc1ccc(Oc2cc(CN3CCCCC3)cc(OC)c2OCc2ccc(OC)cc2)cc1 | 7.6
8 | CCCc1ccc(Oc2cc(CN3CCOCC3)cc(OC)c2OCc2ccc(OC)cc2)cc1 | > 13.1
9 | CCCc1ccc(Oc2cc(CN3CCOCC3)cc(OC)c2OCc2ccc(OC)cc2)c(OC)c1 | > 12.2
10 | C=CCc1cc(OC)c(OC(C)=O)c(Oc2ccccc2OC)c1 | > 6.1
11 | C=CCc1ccc(Oc2cc(CC=C)cc(OC)c2OCCN2CCCC2)c(OC)c1 | 6
12 | C=CCc1cc(OC)c(OCc2ccc(OC)cc2)c(Oc2ccc(CN3CCOCC3)cc2OC)c1 | > 20.6
13 | COc1ccc(COc2c(OC)cc(CN3CCOCC3)cc2Oc2ccc(CN3CCOCC3)cc2OC)cc1 | 2.7
14 | CCCc1cc(OC)c(OCc2ccc(OC)cc2)c(Oc2ccc(CN3CCCCC3)cc2OC)c1 | 3.9
15 | CCCc1ccc(Oc2cc(CN3CCOCC3)cc(OC)c2OCc2ccc(C(F)(F)F)cc2)c(OC)c1 | > 15.1

System: Leishmania infantum
Experiment: Antileishmanial activity against Leishmania infantum MHOM/BR/1972/LD amastigotes infected in mouse Peritoneal macrophage cells assessed as inhibition of parasite growth incubated for 96 hrs by light microscopic analysis
Format: functional, organism-based
Conditions: Leishmania infantum, MHOM/BR/1972/LD, Peritoneal macrophage, 96 h; read-out: IC50

Row | SMILES | pIC50
16 | C=CCc1ccc(Oc2cc(CCC)cc(OC)c2OCc2ccc(OC)cc2)c(OC)c1 | < 4.30
17 | CCCc1ccc(Oc2cc(CCC)cc(OC)c2OCc2ccc(OC)cc2)c(OC)c1 | < 4.30
18 | C=CCc1ccc(Oc2cc(CC=C)cc(OC)c2OCOC)c(OC)c1 | < 4.30
19 | C=CCc1ccc(Oc2cc(CCC)cc(OC)c2O)c(OC)c1 | < 4.30
20 | C=CCc1ccc(Oc2cccc(OC)c2OC)c(OC)c1 | < 4.30
21 | C=CCc1cc(OC)c(OCc2ccc(OC)cc2)c(Oc2ccc(CN3CCCC3)cc2OC)c1 | < 4.30
22 | C=CCc1cc(OC)c(O)c(Oc2ccc(CN3CCOCC3)cc2OC)c1 | < 4.30
23 | C=CCc1cc(OC)c(OCc2ccc(OC)cc2)c(Oc2ccc(CCC)cc2OC)c1 | < 4.30
24 | C=CCc1cc(OC)c(OC)c(Oc2ccccc2OC)c1 | < 4.30
25 | C=CCc1ccc(Oc2cccc(OC)c2OC(C)=O)c(OC)c1 | < 4.30
26 | C=CCc1cc(OC)c(O)c(Oc2ccccc2OC)c1 | < 4.30
27 | C=CCc1ccc(Oc2cc(CC=C)cc(OC)c2OCC(=O)N2CCOCC2)c(OC)c1 | < 4.30
28 | C=CCc1cc(OC)c(OC)c(Oc2ccc(CCC)cc2OC)c1 | < 4.30
29 | C=CCc1ccc(Oc2cc(CC=C)cc(OC)c2OCc2ccc(OC)cc2)c(OC)c1 | < 4.30
30 | C=CCc1ccc(Oc2cccc(OC)c2O)c(OC)c1 | < 4.30
31 | C=CCc1cc(OC)cc(Oc2ccc(CC=C)cc2OC)c1 | < 4.30
32 | C=CCc1cc(OC)c(O)c(Oc2ccc(CN3CCCC3)cc2OC)c1 | < 4.30
33 | C=CCc1cc(OC)c(O)c(Oc2ccc(CCC)cc2OC)c1 | < 4.30

Same assay, conditions: peritoneal macrophage

Row | SMILES | IC50
34 | C=CCc1ccc(Oc2cc(CC=C)ccc2OCc2ccc(OC)cc2)c(OC)c1 | Not Active
35 | CCCc1ccc(OCc2ccc(OC)cc2)c(Oc2ccc(CN3CCOCC3)cc2OC)c1 | Not Active
36 | C=CCc1ccc(Oc2cc(CC=C)cc(OC)c2OCc2ccc(OC)cc2)cc1 | Not Active
37 | C=CCc1ccc(O)c(Oc2ccc(CC=C)cc2OC)c1 | Not Active
38 | C=CCc1ccc(Oc2cccc(OC)c2OCc2ccc(OC)cc2)c(OC)c1 | Not Active
39 | C=CCc1ccc(Oc2cc(CC=C)cc(OC)c2O)cc1 | Not Active
